Assay results: publication PMC10964662, “Domperidone inhibits cell proliferation via targeting MEK and CDK4 in esophageal squamous cell carcinoma” (Cancer Cell International, 2024)

How the values were obtained:
MEK1 = target: T1, MEK1 (Homo sapiens, UniProt Q02750); assay: SPR (Biacore T200, CM5 chip); also pull-down, DARTS and in vitro kinase assay; format: binding
T1 construct: gene MAP2K1; active MEK1 human recombinant protein

MEK2 = target: T2, MEK2 (Homo sapiens, UniProt P36507); assay: as above; format: binding
T2 construct: gene MAP2K2; active MEK2 human recombinant protein
T2 sequence (P36507 whole entry): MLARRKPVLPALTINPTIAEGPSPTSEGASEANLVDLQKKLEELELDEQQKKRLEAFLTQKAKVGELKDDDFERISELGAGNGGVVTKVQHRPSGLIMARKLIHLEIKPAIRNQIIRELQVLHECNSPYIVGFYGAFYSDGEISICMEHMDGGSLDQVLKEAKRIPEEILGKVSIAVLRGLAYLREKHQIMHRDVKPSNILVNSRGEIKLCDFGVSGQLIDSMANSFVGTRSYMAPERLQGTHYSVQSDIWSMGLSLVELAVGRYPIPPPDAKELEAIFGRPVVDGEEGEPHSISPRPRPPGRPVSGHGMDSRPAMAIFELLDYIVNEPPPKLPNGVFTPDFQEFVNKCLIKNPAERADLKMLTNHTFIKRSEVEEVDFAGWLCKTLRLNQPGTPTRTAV

CDK4 = CDK4 (Homo sapiens, UniProt P11802); assay: pull-down with domperidone-Sepharose 4B beads and DARTS in KYSE150/KYSE450 lysates; format: cell-based
CDK4, sequence (P11802 2-303): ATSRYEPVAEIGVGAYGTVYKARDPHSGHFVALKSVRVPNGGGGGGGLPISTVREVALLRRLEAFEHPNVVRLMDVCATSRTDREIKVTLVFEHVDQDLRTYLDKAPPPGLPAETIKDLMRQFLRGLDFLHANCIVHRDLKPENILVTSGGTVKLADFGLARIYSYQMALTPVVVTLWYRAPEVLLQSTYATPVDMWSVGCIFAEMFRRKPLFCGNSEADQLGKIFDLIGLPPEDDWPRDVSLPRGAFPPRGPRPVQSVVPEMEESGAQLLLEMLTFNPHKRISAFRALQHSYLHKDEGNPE

T1 sequence (Q02750 whole entry): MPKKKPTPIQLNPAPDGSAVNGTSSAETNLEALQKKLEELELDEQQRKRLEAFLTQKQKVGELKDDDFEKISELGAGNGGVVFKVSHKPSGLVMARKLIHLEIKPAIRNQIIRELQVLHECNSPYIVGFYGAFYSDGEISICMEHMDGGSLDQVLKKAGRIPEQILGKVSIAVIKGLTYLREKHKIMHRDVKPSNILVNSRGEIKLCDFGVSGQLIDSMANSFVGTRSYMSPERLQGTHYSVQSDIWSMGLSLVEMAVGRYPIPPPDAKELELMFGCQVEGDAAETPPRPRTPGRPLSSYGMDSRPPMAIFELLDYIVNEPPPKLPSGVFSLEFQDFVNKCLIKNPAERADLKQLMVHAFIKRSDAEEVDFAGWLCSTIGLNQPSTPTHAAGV

`O=c1[nH]c2ccccc2n1CCCN1CCC(n2c(=O)[nH]c3cc(Cl)ccc32)CC1` [compound 9, Domperidone] was tested, and the Kd (MEK1) was 6.2 µM, the Kd (MEK2) was 6.66 µM and the “pull-down with domperidone-Sepharose 4B beads and DARTS in KYSE150/KYSE450 lysat” value (CDK4) was “DARTS assay also validated that domperidone could directly interact with MEK1, MEK2 and CDK4 ex vivo”.
